Measured values published in patent US20260001871A1, “TRIAZOLE DERIVATIVES AS MODULATORS OF MAS-RELATED G-PROTEIN RECEPTOR D” (ESCIENT PHARMACEUTICALS, INC., priority 2022, published 2026).

Molecular target: human MRGPRD (Homo sapiens, UniProt Q8TDS7)
Experiment: MRGPRD antagonist activity, IP-One HTRF assay in CHO cells stably expressing human MRGPRD (versus 100 μM β-Alanine agonist)
Assay type: cell-based
Summary of the method: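 CHO cells stably expressing human MRGPRD, plated overnight at 37 °C, were treated with antagonist plus agonist in Tris-HCl/NaCl/LiCl buffer pH 8, incubated 1 h at 37 °C then 1 h at room temperature. IP-1 accumulation read by HTRF; IC50 and percent antagonism of maximum efficacy averaged, SEM reported.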

Sequence of human MRGPRD (Q8TDS7 whole entry): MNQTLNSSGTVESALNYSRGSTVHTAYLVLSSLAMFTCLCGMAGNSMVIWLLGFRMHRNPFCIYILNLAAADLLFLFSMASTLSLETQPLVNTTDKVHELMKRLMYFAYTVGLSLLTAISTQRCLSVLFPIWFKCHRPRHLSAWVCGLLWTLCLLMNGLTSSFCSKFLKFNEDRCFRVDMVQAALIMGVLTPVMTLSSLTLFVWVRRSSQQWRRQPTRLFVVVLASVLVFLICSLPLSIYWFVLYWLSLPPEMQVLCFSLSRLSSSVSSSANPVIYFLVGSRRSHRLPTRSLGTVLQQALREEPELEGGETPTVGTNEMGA

SMILES | IC50 [nM]
O=C(Nc1ccncc1)c1nnn(-c2ccc(-c3cccs3)cc2)c1C1CC1 [Compound 7-152] | 500 to 1000
CC(=O)c1ccc(-c2ccc(-n3nnc(C(=O)Nc4ccncc4)c3C3CC3)cc2)cc1F [Compound 7-104] | 100 to 500
Cc1cnn(C)c1-c1ccc(-n2nnc(C(=O)Nc3ccncc3)c2C2CC2)cc1 [Compound 7-73] | 100 to 500
CC(=O)c1ccc(-c2ccc(-n3nnc(C(=O)Nc4ccncc4)c3C3CC3)cc2)cc1C [Compound 7-174] | 1000 to 3000
CC(C)(C)n1cc(-c2ccc(-n3nnc(C(=O)Nc4ccncc4)c3C3CC3)cc2)cn1 [Compound 7-142] | 500 to 1000
Cn1ncc(-c2ccc(-n3nnc(C(=O)Nc4ccncc4)c3C3CC3)cc2)c1-c1ccccc1 [Compound 7-144] | 500 to 1000
O=C(Nc1ccncc1)c1nnn(-c2ccc(-c3ccccc3Cl)cc2)c1C1CC1 [Compound 7-145] | 500 to 1000
CC(=O)c1cccc(-c2ccc(-n3nnc(C(=O)Nc4ccncc4)c3C3CC3)cc2)c1 [Compound 7-80] | 100 to 500
Cc1[nH]nc(-c2ccc(-n3nnc(C(=O)Nc4ccncc4)c3C3CC3)cc2)c1Cl [Compound 7-128] | 500 to 1000
COc1ccccc1-c1ccc(-n2nnc(C(=O)Nc3ccncc3)c2C2CC2)cc1 [Compound 7-112] | 100 to 500
O=C(Nc1ccncc1)c1nnn(-c2cccc(-c3cnn(-c4ccccc4)c3)c2)c1C1CC1 [Compound 7-256] | 500 to 1000
O=C(Nc1ccncc1)c1nnn(-c2ccc(-c3cc(C(F)(F)F)[nH]n3)cc2)c1C1CC1 [Compound 7-183] | 1000 to 3000
O=C(Nc1ccncc1)c1nnn(-c2ccc(-c3cscn3)cc2)c1C1CC1 [Compound 7-176] | 1000 to 3000
COc1cc(-c2ccc(C#N)cc2)ccc1-n1nnc(C(=O)Nc2ccnc(C)c2)c1C1CC1 [Compound 7-228] | 100 to 500
N#Cc1ccc(-c2ccc(-n3nnc(C(=O)Nc4ccncc4)c3C3CC3)cc2)cc1F [Compound 7-22] | 100 to 500
Cc1nn(C)c(C)c1-c1ccc(-n2nnc(C(=O)Nc3ccncc3)c2C2CC2)cc1F [Compound 7-234] | 100 to 500
O=C(Nc1ccncc1)c1nnn(-c2ccc(-c3ccc4c(c3)CCC4)cc2)c1C1CC1 [Compound 7-64] | 100 to 500
Cc1nn(C)c(C)c1-c1ccc(-n2nnc(C(=O)Nc3ccncc3)c2C2CC2)c(F)c1 [Compound 7-221] | < 100
COc1ccc(-c2cccc(-n3nnc(C(=O)Nc4ccncc4)c3C3CC3)c2)c(OC)c1 [Compound 7-286] | 1000 to 3000
CCn1cc(-c2ccc(-n3nnc(C(=O)Nc4ccncc4)c3C3CC3)cc2)c(C)n1 [Compound 7-189] | 1000 to 3000
COc1ccc(-c2cccc(-n3nnc(C(=O)Nc4ccncc4)c3C3CC3)c2)cc1 [Compound 7-268] | 500 to 1000
O=C(Nc1ccncc1)c1nnn(-c2ccc(-c3cnn(C4CCCC4)c3)cc2)c1C1CC1 [Compound 7-63] | 100 to 500
Cn1ncc(CO)c1-c1ccc(-n2nnc(C(=O)Nc3ccncc3)c2C2CC2)cc1 [Compound 7-192] | 1000 to 3000

SMILES | IC50 [nM]
O=C(Nc1ccncc1)c1nnn(-c2ccc(-c3ccccc3)cc2Cl)c1C1CC1 [Compound 4-13] | 500 to 1000
COc1cc(-c2ccccc2)ccc1-n1nnc(C(=O)Nc2ccnc(C)c2)c1C1CC1 [Compound 7-272] | 500 to 1000
O=C(Nc1ccncc1)c1nnn(-c2ccc(-c3ccc4[nH]ccc4c3)cc2)c1C1CC1 [Compound 7-196] | 1000 to 3000
O=C(Nc1ccncc1)c1nnn(-c2ccc(-c3ccccc3)cc2)c1C1CC1 [Compound 2-3] | 500 to 1000
O=C(Nc1ccncc1)c1nnn(-c2ccc(-c3ccc(C4CCC4)cc3)cc2)c1C1CC1 [Compound 7-127] | 500 to 1000
Cn1nc(-c2ccc(-n3nnc(C(=O)Nc4ccncc4)c3C3CC3)cc2)cc1-c1ccccc1 [Compound 7-111] | 100 to 500
Cc1cc(-n2nnc(C(=O)Nc3ccncc3)c2C2CC2)ccc1-c1c(C)nn(C)c1C [Compound 7-271] | 500 to 1000
O=C(NC1(c2cccnc2)CC1)c1nnn(-c2cccc(-c3cnn(C4CCC4)c3)c2)c1C1CC1 [Compound 7-10] | > 3000
Cc1cc(-c2ccc(-n3nnc(C(=O)Nc4ccncc4)c3C3CC3)cc2)on1 [Compound 7-198] | 1000 to 3000
Cc1nnc(-c2ccc(-n3nnc(C(=O)Nc4ccncc4)c3C3CC3)cc2)o1 [Compound 7-1] | > 3000
Cc1ccc(-n2nnc(C(=O)Nc3ccncc3)c2C2CCC2)cc1 [Compound 3-5] | 500 to 1000
O=C(Nc1ccncc1)c1nnn(-c2ccc(-c3ccncc3)cc2)c1C1CC1 [Compound 7-178] | 1000 to 3000
Cc1nn(C)c(C)c1-c1ccc(-n2nnc(C(=O)Nc3ccncc3)c2C2CC2)cc1C(F)(F)F [Compound 7-331] | > 3000
CC(=O)c1cccc(-n2nnc(C(=O)Nc3ccncc3)c2C2CC2)c1 [Compound 2-9] | 1000 to 3000
Cc1ccc(CNC(=O)c2nnn(-c3cccc(-c4ccn(C5CCC5)n4)c3)c2C2CC2)cn1 [Compound 7-278] | 500 to 1000
N#Cc1cnn(-c2ccccc2)c1-c1ccc(-n2nnc(C(=O)Nc3ccncc3)c2C2CC2)cc1 [Compound 7-216] | > 3000
O=C(Nc1ccncc1)c1nnn(-c2ccc(-c3cnn4c3CCC4)cc2)c1C1CC1 [Compound 7-25] | 100 to 500
CN(C)C(=O)c1ccccc1-c1ccc(-n2nnc(C(=O)Nc3ccncc3)c2C2CC2)cc1 [Compound 7-2] | > 3000
O=C(Nc1ccncc1)c1nnn(-c2ccc(-c3ccc(O)cc3)cc2)c1C1CC1 [Compound 7-58] | 100 to 500
O=C(Nc1ccncc1)c1nnn(-c2cccc(-c3ccc(O)cc3)c2)c1C1CC1 [Compound 7-277] | 500 to 1000
Cc1cc(NC(=O)c2nnn(-c3ccc(-c4ccccc4)cc3OC(F)(F)F)c2C2CC2)ccn1 [Compound 7-82] | 100 to 500
NS(=O)(=O)c1cccc(-c2ccc(-n3nnc(C(=O)Nc4ccncc4)c3C3CC3)cc2)c1 [Compound 7-135] | 500 to 1000
COc1cc(-c2ccc(-n3nnc(C(=O)Nc4ccncc4)c3C3CC3)cc2)ccc1C#N [Compound 7-70] | 100 to 500

Next, values leading:

IC50 [nM] | SMILES
500 to 1000 | Cc1ccncc1CNC(=O)c1nnn(-c2ccc(-c3c(C)nn(-c4ccccc4)c3C)cc2)c1C1CC1 [Compound 9-26]
> 3000 | COc1ccccc1CCNC(=O)c1nnn(-c2ccc(-c3ccccc3)cc2)c1C1CC1 [Compound 14-1]
< 100 | CCn1cc(CNC(=O)c2nnn(-c3ccc(-c4c(C)nn(C)c4C)cc3)c2C(C)C)cn1 [Compound 17-11]
> 3000 | Cc1nn2cccnc2c1-c1ccc(-n2nnc(C(=O)NC3(c4cncc(Cl)c4)CC3)c2C2CC2)cc1 [Compound 10-2]
100 to 500 | Cc1ccc(CNC(=O)c2nnn(-c3ccc(-c4ccc(C#N)c(F)c4)cc3)c2C2CC2)cn1 [Compound 17-3, 1-(4′-cyano-3′-fluoro-[1,1′-biphenyl]-4-yl)-5-cyclopropyl-N-((6-methylpyridin-3-yl)methyl)-1H-1,2,3-triazole-4-carboxamide]
> 3000 | O=C(NCCc1ncn[nH]1)c1nnn(-c2ccc(-c3ccccc3)cc2)c1C1CC1 [Compound 14-9]
> 3000 | CN(Cc1ccc(N2CCOCC2)cc1)C(=O)c1nnn(-c2ccc(-c3ccccc3)cc2)c1C1CC1 [Compound 14-76]
1000 to 3000 | N#Cc1ccc(-c2ccc(-n3nnc(C(=O)NC4(c5cccnc5)CC4)c3C3CC3)cc2)cn1 [Compound 18-8]
100 to 500 | CCn1cc(CNC(=O)c2nnn(-c3ccc(-c4ccccc4)cc3)c2C(C)C)cn1 [Compound 17-13]
< 100 | Cc1ncccc1CNC(=O)c1nnn(-c2ccc(-c3c(C)nn(-c4ccccc4)c3C)cc2)c1C1CC1 [Compound 9-4]
500 to 1000 | Cc1ccc(CNC(=O)c2nnn(-c3ccc(-c4ccc(C#N)cc4)cc3)c2C2CC2)cn1 [Compound 15-3]
1000 to 3000 | Cc1n[nH]c2cccc(NC(=O)c3nnn(-c4ccc(-c5ccccc5)cc4)c3C3CC3)c12 [Compound 14-61]
100 to 500 | Cc1nn(-c2ccccc2)c(C)c1-c1ccc(-n2nnc(C(=O)NC3(c4cncc(Cl)c4)CC3)c2C2CC2)cc1 [Compound 9-8]
500 to 1000 | CC(C)c1c(C(=O)Nc2cccc(C#N)c2)nnn1-c1ccc(-c2cnn(C)c2)cc1 [Compound 17-30]
1000 to 3000 | CCc1ccc(C2(NC(=O)c3nnn(-c4ccc(-c5c(C)nn(C)c5C)cc4)c3C3CC3)CC2)cn1 [Compound 9-33]
500 to 1000 | O=C(Nc1cccc(-n2cncn2)c1)c1nnn(-c2ccc(-c3ccccc3)cc2)c1C1CC1 [Compound 14-24]
1000 to 3000 | O=C(NCCc1c[nH]cn1)c1nnn(-c2ccc(-c3ccccc3)cc2)c1C1CC1 [Compound 14-42]
1000 to 3000 | COc1ccc2[nH]cc(CC(C)NC(=O)c3nnn(-c4ccc(-c5ccccc5)cc4)c3C3CC3)c2c1 (centres unmarked) [Compound 14-59]
1000 to 3000 | Cc1cc(NC(=O)c2nnn(C3CCC(c4c(C)nn(C)c4C)CC3)c2C2CC2)ccn1 (centres unmarked) [Compound 13-1, 5-cyclopropyl-N-(2-methylpyridin-4-yl)-1-(4-(1,3,5-trimethyl-1H-pyrazol-4-yl)cyclohexyl)-1H-1,2,3-triazole-4-carboxamide]
500 to 1000 | O=C(Nc1ccnc(C(F)F)c1)c1nnn(-c2ccc(-c3ccccc3)cc2)c1C1CC1 [Compound 14-22]
< 100 | Cc1ncccc1CNC(=O)c1nnn(-c2ccc(-c3ccc(C#N)c(F)c3)cc2)c1C1CC1 [Compound 16-1, 1-(4′-cyano-3′-fluoro-[1,1′-biphenyl]-4-yl)-5-cyclopropyl-N-((2-methylpyridin-3-yl)methyl)-1H-1,2,3-triazole-4-carboxamide]
100 to 500 | CCn1cc(CNC(=O)c2nnn(-c3ccc(-c4ccc(C#N)cc4)cc3F)c2C(C)C)cn1 [Compound 17-19]
100 to 500 | COc1ccc(C2(NC(=O)c3nnn(-c4ccc(-c5ccc(C#N)cc5)cc4)c3C3CC3)CC2)cn1 [Compound 17-6]
1000 to 3000 | COc1cccc(C)c1NC(=O)c1nnn(-c2ccc(-c3ccccc3)cc2)c1C1CC1 [Compound 14-62]
< 100 | Cc1nn(-c2ccccc2)c(C)c1-c1ccc(-n2nnc(C(=O)NC3(c4cccnc4)CC3)c2C2CC2)cc1 [Compound 18-11]
